Patent US10946099B2, “Compositions for photodynamic therapy and fluorescence diagnosis of cancers and other diseases” (VISION GLOBAL HOLDINGS LIMITED, priority 2017, dated 2021)

How the values were obtained:
[1] = Fluorescence emission spectroscopy; format: physicochemical
Text: A BMG fluostar spectrofluorophotometer was used to record fluorescent emissions of PpIX or PpIX-TF conjugate (referred to herein as TF01) suspended in aqueous buffer. A UV-vis spectrophotometer was used to record the absorbance spectra of PpIX and TF.

SK-Hep-1 cell = assay: Soft agar colony-formation assay; format: cell-based; settings: 10 ug/ml, 3 J/cm^2, 635-nm laser source
Experimental: To estimate the anchorage-independent growth ability of cells treated by PpIX-TF conjugate (referred to herein as TF01), 3×10^4 cells of SK-Hep-1 cell were seeded in 35 mm dish and incubated for 24 h at 37° C. The cells were then treated with a PpIX-TF conjugate (TF01) or medium control. After 24 h incubation, the cells were washed twice with serum-free medium and irradiated at a light intensity of 10 mW/cm^2 using a 635-nm laser source for 5 min. Then, 5000 cells were suspended in 0.3% noble agar and cells were allowed to grow for another 2 weeks. Colonies were stained with 0.02% Giemsa Stain Solution, and documented by scanning.

[2] = tested on: human hepatoma SK-HEP 1 xenograft; assay: In vivo PDT efficacy; settings: 400 mg/kg intravenously, followed by laser application (230 mW/cm^2, 260 J/cm^2, 635-nm); nude mice
Experimental: To test the in vivo PDT efficacy of PpIX-TF conjugate, nude mice bearing human hepatoma SK-HEP 1 xenograft were intravenously treated with PBS, 200 mg/kg or 400 mg/kg PpIX-TF conjugate (TF01) respectively (n=3-4 per group), followed by the laser application (at a light intensity 230 mW/cm^2, 260 J/cm^2, using a 635-nm laser source). Visible tumors were measured using two orthogonal measurements L and W (perpendicular to L), the volumes were calculated using the formula V=LW2/2 and recorded.

[3] = Solubility and dispersibility in aqueous buffer; format: physicochemical; settings: compared to PpIX in aqueous Tris-HCl buffer, 20 mM, pH 8.5
Experimental: Improvement in solubility and dispersibility of the PpIX-TF conjugate was compared to PpIX in aqueous Tris-HCl buffer, 20 mM, pH 8.5 (FIG. 6).

HCT 116 = assay: Cell phototoxicity assay (MTT); format: cell-based; settings: concentration greater than about 25 μg/ml
Experimental: (§1) To determine cell viability under dark conditions, cells (1×10^4 cells/well) were seeded onto 96-well plates and incubated for 24 h at 37° C. After cell stabilization, the culture medium was replaced with 100 μl of culture medium containing free PpIX or PpIX-TF conjugate (referred to herein as TF01), followed by incubation for 24 h. The cells were then washed twice with serum-free medium and cell viability was evaluated by MTT assay after 48 h. To determine the in vitro phototoxicity after laser irradiation, cells (1×10^4 cells/well) were seeded onto 96-well plates and incubated for 24 h at 37° C. The cells were then treated with free PpIX or a PpIX-TF conjugate (TF01). After 24 h incubation, the cells were washed twice with serum-free medium and irradiated at a light intensity of 150 mW/cm^2 using 450 nm or 627 nm LED light source for 30 min or 10 mW/cm^2 using a 635-nm laser source for 5-30 min (3 J/cm^2 to 18 J/cm^2). The cell viability of irradiated cells was evaluated by MTT assay after 24 h of incubation.
(§2) For each cancer cell line, measurements were performed in dark and in the presence of 450 nm blue laser light or 627 nm red light.

HepG2 = assay: Cell phototoxicity assay (MTT); format: cell-based; settings: concentration greater than about 25 μg/ml
Experimental: as §1, §2

[4] = tested on: liver cancer cell line SK-Hep-1; assay: Cellular localization with MitoTracker, LysoTracker and ER-Tracker; format: cell-based
Experimental: The Mitotracker, lysotracker and ER-tracker (Thermo Fisher Scientific) were used to label mitochondria, lysosome and endoplasmic reticulum (ER) respectively. Two measures of correlation, the Pearson correlation coefficient (PCC) and the Mander's overlap coefficient (MOC) were calculated as depicted in the table below.

[5] = Cell phototoxicity assay under different dosages of 635-nm laser excitation (FIG. 16); format: cell-based; settings: when laser dosage were increased (635-nm laser, 3 J/cm^2 to 18 J/cm^2)
Experimental: as §1
When laser dosage were increased, the corresponding IC50 values of PpIX-TF conjugate (TF01) were decreased.

HCT116 cells = assay: Intracellular ROS generation (cellrox reagent); format: cell-based
Experimental: To examine intracellular ROS generation by PpIX and PpIX-TF conjugate (TF01), HCT116 cells were seeded in 24-well, glass-bottomed plate and incubated with cellrox reagent (Thermo Fisher Scientific). After 30 min, the cells were washed three times by PBS and treated with PpIX or PpIX-TF conjugate (TF01). After 24 h of incubation, the cells were washed twice with PBS and then exposed to a 10 mW/cm^2 using a 635-nm laser source for 30 min. After irradiation, the fluorescence intensity of cells was measured by a microplate reader with excitation/emission at 485/520 nm. The values are expressed as fluorescence intensity ratio to control.

[6] = tested on: colorectal carcinoma cell line HCT116; assay: Cell uptake and imaging (fluorescence microscopy); format: cell-based
Experimental: Cancer cells were used to detect and compare cellular uptake of PpIX and PpIX-TF conjugate (referred to herein as TF01) in vitro. The cells were cultured in medium supplemented with 10% fetal bovine serum at 37° C. and 5% CO2. After incubating cells with PpIX-TF conjugate (TF01), images were viewed by confocal microscopy.
FIG. 9 depicts the fluorescence microscopic analysis of cellular uptake of recombinant TF in a colorectal carcinoma cell line HCT116.

[7] = Singlet oxygen / ROS generation by RNO bleaching; format: physicochemical; settings: relative to positive control methylene blue; RNO bleaching near 440 nm
Experimental: To determine singlet oxygen generation, singlet oxygen detection method was applied to a 3 ml aqueous solution containing the singlet oxygen generator, 50 µM of RNO and 8 mM of imidazole. The detection for absorption intensity of RNO near 440 nm was monitored to reflect the production of ROS by a UV-vis spectrophotometer after time intervals of laser exposure.

Batch 1: exemplary batch of PpIX-TF conjugate (TF01), molar ratio of PpIX to TF protein 0.690
emission properties ([1]; 5 mg/ml (approximately 53 μM PpIX) in Tris-HCl buffer 20 mM, pH 8.5, versus control 60 μM PpIX with 5% DMSO): greater

TF01: conjugate of PpIX and recombinant TF (globin 2αβ2 tetramer); PpIX non-covalently associated with the protein
cancer cell soft agar colony formation (SK-Hep-1 cell): significantly inhibit | tumor volume [2]: tumor regression | solubility and dispersibility [3]: Improvement | survival rates of the cells (HCT 116; irradiation 450 nm blue light): markedly decrease | survival rates of the cells (HCT 116; irradiation 627 nm red light): markedly decrease | survival rates of the cells (HepG2; irradiation 450 nm blue light): markedly decrease | survival rates of the cells (HepG2; irradiation 627 nm red light): markedly decrease | Mander's overlap coefficient (MOC) ([4]; Endoplasmic reticulum): 0.6908 | Pearson correlation coefficient (PCC) ([4]; Endoplasmic reticulum): 0.6076 | Mander's overlap coefficient (MOC) ([4]; Lysosome): 0.4866 | Pearson correlation coefficient (PCC) ([4]; Lysosome): 0.4974 | Mander's overlap coefficient (MOC) ([4]; Mitochondria): 0.4684 | Pearson correlation coefficient (PCC) ([4]; Mitochondria): 0.4922 | IC50 values under different dosages of 635-nm laser excitation [5]: decreased | intracellular ROS generation (HCT116 cells; 50 um/ml (batch 2), approximately 0.71 uM PpIX, 635-nm laser 10 mW/cm^2 30 min, versus control PpIX 0.75 uM): greatly enhance | pH dependence of the emission intensity ([1]; 50 mM Tris-HCl or potassium phosphate buffer, λmax=625 nm): wide pH range | cellular uptake / distribution of fluorescent signals [6]: widely distributed in the cytoplasm | quantum yield of ROS [7]: almost double that of methylene blue

OO [H2O2, reference compound]
intracellular ROS generation (HCT116 cells; 100 uM, positive control, HCT116): increase
